Laboratory results published in the NIST ThermoML archive (doi:10.1016/j.jct.2013.03.015).

Assay: molar heat capacity at constant pressure; xn = mol fraction of the nth substance listed
Settings: 101 kPa, Crystal, relaxation calorimetry - PPMS by Quantum Design

[Cl-].[K+] [potassium chloride] + [Cl-].[Na+]
Settings | molar heat capacity at constant pressure [J/K/mol]
5.041 K, x2 = 0.9 | 0.0176
5.086 K, x2 = 0.2 | 0.0361
5.095 K, x2 = 0.1 | 0.0387
5.409 K, x2 = 0.9 | 0.0219
5.454 K, x2 = 0.2 | 0.0452
5.458 K, x2 = 0.1 | 0.0485
5.793 K, x2 = 0.9 | 0.027
5.856 K, x2 = 0.2 | 0.0564
5.879 K, x2 = 0.1 | 0.0601
6.208 K, x2 = 0.9 | 0.0335
6.274 K, x2 = 0.2 | 0.07
6.294 K, x2 = 0.1 | 0.0738
6.664 K, x2 = 0.9 | 0.0417
6.728 K, x2 = 0.2 | 0.0878
6.752 K, x2 = 0.1 | 0.0936
7.14 K, x2 = 0.9 | 0.0518
7.176 K, x2 = 0.2 | 0.1084
7.188 K, x2 = 0.1 | 0.1141
7.653 K, x2 = 0.9 | 0.0641
7.691 K, x2 = 0.2 | 0.1356
7.702 K, x2 = 0.1 | 0.1425
8.202 K, x2 = 0.9 | 0.0801
8.238 K, x2 = 0.2 | 0.1702
8.252 K, x2 = 0.1 | 0.1787
8.791 K, x2 = 0.9 | 0.1001
8.829 K, x2 = 0.2 | 0.215
8.84 K, x2 = 0.1 | 0.2244
9.422 K, x2 = 0.9 | 0.1252
9.461 K, x2 = 0.2 | 0.2712
9.475 K, x2 = 0.1 | 0.2828
10.1 K, x2 = 0.9 | 0.157
10.14 K, x2 = 0.2 | 0.3435
10.15 K, x2 = 0.1 | 0.357
10.83 K, x2 = 0.9 | 0.198
10.87 K, x2 = 0.2 | 0.4354
10.89 K, x2 = 0.1 | 0.4512
11.61 K, x2 = 0.9 | 0.2499
11.65 K, x2 = 0.2 | 0.5511
11.67 K, x2 = 0.1 | 0.5685
12.45 K, x2 = 0.9 | 0.3169
12.48 K, x2 = 0.2 | 0.6946
12.5 K, x2 = 0.1 | 0.7153
13.34 K, x2 = 0.9 | 0.4021
13.38 K, x2 = 0.2 | 0.8732
13.4 K, x2 = 0.1 | 0.8969
14.23 K, x2 = 0.9 | 0.51
14.34 K, x2 = 0.2 | 1.092
14.36 K, x2 = 0.1 | 1.12
15.33 K, x2 = 0.9 | 0.6479
15.37 K, x2 = 0.2 | 1.362
15.39 K, x2 = 0.1 | 1.395
16.43 K, x2 = 0.9 | 0.8219
16.47 K, x2 = 0.2 | 1.691
16.49 K, x2 = 0.1 | 1.726
17.61 K, x2 = 0.9 | 1.04
17.65 K, x2 = 0.2 | 2.087
17.67 K, x2 = 0.1 | 2.125
18.87 K, x2 = 0.9 | 1.31
18.91 K, x2 = 0.2 | 2.55
18.94 K, x2 = 0.1 | 2.599
20.24 K, x2 = 0.9 | 1.649
20.26 K, x2 = 0.2 | 3.105
20.29 K, x2 = 0.1 | 3.156
21.7 K, x2 = 0.9 | 2.061
21.71 K, x2 = 0.2 | 3.756
21.74 K, x2 = 0.1 | 3.81
23.25 K, x2 = 0.9 | 2.563
23.26 K, x2 = 0.2 | 4.514
23.29 K, x2 = 0.1 | 4.578
24.92 K, x2 = 0.9 | 3.165
24.93 K, x2 = 0.2 | 5.396
24.96 K, x2 = 0.1 | 5.463
26.71 K, x2 = 0.9 | 3.859
26.72 K, x2 = 0.2 | 6.429
26.74 K, x2 = 0.1 | 6.508
28.63 K, x2 = 0.2 | 7.596
28.64 K, x2 = 0.9 | 4.716
28.66 K, x2 = 0.1 | 7.674
30.69 K, x2 = 0.2 | 8.768
30.7 K, x2 = 0.9 | 5.671
30.71 K, x2 = 0.1 | 8.824
32.89 K, x2 = 0.2 | 10.16
32.9 K, x2 = 0.9 | 6.785
32.91 K, x2 = 0.1 | 10.29
35.25 K, x2 = 0.2 | 11.67
35.27 K, x2 = 0.9 | 8.039
35.28 K, x2 = 0.1 | 11.82
37.78 K, x2 = 0.2 | 13.3
37.81 K, x2 = 0.1 | 13.48
37.81 K, x2 = 0.9 | 9.437
